Laboratory results reported in the METLIN SMRT retention time set (Domingo-Almenara et al. 2019).

Assay: gradient 5% acetonitrile 3 min, to 50% in 2 min, to 85% in 15 min, held 3 min, 100 µL/min
Settings: column: Zorbax Extend-C18 2.1 x 50 mm; eluents: water / acetonitrile, 0.1% formic acid
Summary of the method: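 Using water and acetonitrile that each contained 0.1% formic acid, mixtures of ~100 pure standards were separated at 100 μL/min on a Zorbax Extend-C18 column (2.1 × 50 mm, 1.8 μm). The HPLC fed a quadrupole time-of-flight mass spectrometer working in positive and negative ionization mode, with dead and dwell volumes of 40 μL and 900 μL. Data were acquired over 3 months. Retention time was read from computationally picked adduct peaks after manual inspection of each.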

| SMILES | RP-LC retention time [s] |
| --- | --- |
| COc1ccc(C2C(C(=O)Nc3cc(OC)ccc3OC)c3ccccc3C(=O)N2C)cc1 (stereo unspecified) | 929 |
| O=C(Cc1scnc1-c1cccs1)N1CCN(c2ccccn2)CC1 | 596 |
| CC1CN2C=NC(N3CCN(S(=O)(=O)Cc4cccc(Cl)c4)CC3)=CC2=N1 (stereo unspecified) | 627 |
| Cc1cccc(CN2N=C(C(=O)N3CCCC3)S(=O)(=O)c3ccccc32)c1 | 892 |
| Cc1cccc(N2CCN(c3cc(-c4ccccc4)nc4c(-c5ccccc5)cnn34)CC2)n1 | 1010 |
| CCc1nc(-c2csc(S(=O)(=O)N3CCC(C(=O)Nc4ccc(F)c(Cl)c4)CC3)c2)no1 | 1150 |

Other lines, results leading:

| RP-LC retention time [s] | SMILES |
| --- | --- |
| 698 | CCOC(=O)Cc1ccc(NC(=O)Nc2cccn3cnnc23)cc1 |
| 670 | O=C(CSc1nc2ccccc2c(=O)n1Cc1cccs1)Nc1ncn[nH]1 |
| 916 | CCN1c2cc(Cl)ccc2C(=O)NC12CCN(C(=O)Nc1cc(C)ccc1OC)CC2 |
| 813 | Cc1cc(N2CCCC2)nc(N2CCN(C(=O)c3ccc(C(C)(C)C)cc3)CC2)n1 |
| 777 | Cc1ccc(NS(=O)(=O)c2cc3n(c2)CCN(C(C)C)C3=O)cc1 |
